One series has as its system cell line Hela. As to the kind of experiment: MTT proliferation inhibition, Hela. It counts as cell-based. The procedure: (§1) Human leukemia cell line K562, clear-cell ovarian carcinoma cell line ES-2, human prostate cancer cell line PC-3, human breast cancer cell line MCF-7, cell line Hela, human liver cancer cell line H7402 and human ovarian cancer cell line 3-AO were transferred into a culture flask and were cultured in a medium at 37° C. in a 5% CO2 and saturation humidity. One bottle of cells in logarithmic growth phase was picked out and was blew and beaten to be uniform with a pipette, then took some cell suspension solution to prepare blood counting plate smear to count cells under inverted microscope, and then adjusted the cell number to be 1×10^5/mL by adding some culture medium. Cells were seeded on a 96-well plate on which also drug tests performed. Blank control group, negative control group, positive control group and drug test group were established on the plate while the surrounding wells of the plate were not used (but filled with sterile PBS), wherein the blank control groups were prepared by addition of culture medium 150 μL per well, the negative control groups were prepared by addition of cell suspension solution 100 μL per well and culture medium 50 μL per well, the positive control groups were prepared by addition of cell suspension solution 100 μL per well and positive control drug solution 50 μL per well, the drug test groups were prepared by addition of cell suspension solution 100 μL per well and test compound solution 50 μL per well, and there were 5 different concentrations of drug in the positive control group and the drug test group respectively: 0.01, 0.1, 1, 10, 100 μmol·L^−1, each concentration was established with 3 parallel wells. After the drug was added, the 96-well plate was incubated for 48 h at 37° C. in a CO2 incubator of 5% CO2 and saturation humidity. Upon completion of the incubation, 20 μL MTT solution (concentration was 5 mg/mL) was added to each well and incubated for an additional 4 h, and after the 96-well plate was centrifuged at 2000 rpm for 30 min, medium of each well was suck out carefully and removed and 100 μL DMSO was added instead, followed by vibrating on a tablet shaker for 15 min to re-dissolve formazan crystals completely. OD value of each well was measured at 570 nm wavelength using an enzyme-linked immunosorbent assay reader to calculate cellular proliferation inhibitory ratio of each drug in different concentrations. And half-inhibitory concentration (IC50) was calculated using statistical software SPSS 16.0, wherein the cellular proliferation inhibitory ratio can be calculated as following equation: […]

A further series has as its target T1, Aminopeptidase N (Sus scrofa, UniProt P15145).
T1 construct: purchased Sigma
T1 sequence (P15145 1-963): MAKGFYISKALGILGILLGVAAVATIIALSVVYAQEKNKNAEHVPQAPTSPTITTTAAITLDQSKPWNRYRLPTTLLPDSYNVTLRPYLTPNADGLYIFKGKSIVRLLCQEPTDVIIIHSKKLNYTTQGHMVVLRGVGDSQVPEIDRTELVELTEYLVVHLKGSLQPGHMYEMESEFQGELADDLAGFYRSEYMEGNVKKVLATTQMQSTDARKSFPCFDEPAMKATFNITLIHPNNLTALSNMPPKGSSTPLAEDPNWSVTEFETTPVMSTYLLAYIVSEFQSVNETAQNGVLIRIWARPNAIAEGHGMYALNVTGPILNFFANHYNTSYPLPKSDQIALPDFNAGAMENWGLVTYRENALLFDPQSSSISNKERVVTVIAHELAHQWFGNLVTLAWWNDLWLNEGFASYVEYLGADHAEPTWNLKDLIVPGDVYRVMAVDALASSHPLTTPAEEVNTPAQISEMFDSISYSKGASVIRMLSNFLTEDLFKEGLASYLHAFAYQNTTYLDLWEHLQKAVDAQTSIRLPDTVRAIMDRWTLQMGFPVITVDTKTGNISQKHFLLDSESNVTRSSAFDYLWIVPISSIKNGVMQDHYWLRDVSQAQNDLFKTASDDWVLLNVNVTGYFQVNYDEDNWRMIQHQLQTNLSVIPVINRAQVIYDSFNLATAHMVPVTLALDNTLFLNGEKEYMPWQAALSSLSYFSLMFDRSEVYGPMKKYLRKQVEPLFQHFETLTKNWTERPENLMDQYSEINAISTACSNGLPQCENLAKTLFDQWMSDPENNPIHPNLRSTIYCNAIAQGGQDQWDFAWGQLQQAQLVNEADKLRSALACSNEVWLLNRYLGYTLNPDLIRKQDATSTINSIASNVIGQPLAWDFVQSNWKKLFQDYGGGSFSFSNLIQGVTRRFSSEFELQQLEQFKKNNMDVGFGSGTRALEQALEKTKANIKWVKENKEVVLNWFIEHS
As to the kind of experiment: Inhibition activity against enzyme in vitro (aminopeptidase N, L-Leu-p-nitroanilide substrate). It counts as biochemical. Conditions: for IC50: 37° C., 0.5 h, absorbance 405 nm, PBS pH 7.2, read-out: IC50(μM) APN. Here is the method: Aminopeptidase N and L-Leu-p-nitroanilide as substrate were purchased from Sigma cooperation.
Preparation of Buffer Solution: 12.89 g Na2HPO4.12H2O and 2.18 g NaH2PO4.2H2O were dissolved in a 1000 mL volumetric flask, then the mixture was diluted to 1000 mL with fresh distilled water to obtain 50 mM Phosphate Buffer solution (PBS, pH 7.2), which was kept at room temperature to spare.
Aminopeptidase N was dissolved in the buffer solution to obtain 0.1 IU/mL solution.
The substrate was dissolved in DMSO to obtain a […] solution, which was kept in refrigerator to spare.
The aminopeptidase N solution 10 μL, the substrate solution 5 μL and compound with different concentration 40 μL were added into a 96-well cell plate, and then adjusted to 200 μL with phosphate buffer saline solution (pH 7.2). […] And the substrate solution 5 μL of blank group was adjusted to 200 μL with buffer solution. The mixture was incubated at 37° C. for 0.5 h, and absorbance was then determined at 405 nm wavelength Inhibitory ratio can be calculated as follows: […]
According to concentration of compound and corresponding inhibitory ratio, the IC50 value was calculated by using a fitting curve of Origin 7.5 software.

Series [1] has as its system human breast cancer cell line MCF-7. As to the kind of experiment: MTT proliferation inhibition, MCF-7. Format: cell-based. Conditions: 48 h. The procedure: as §1
A further series concerns liver cancer H22. As to the kind of experiment: Inhibition assay of oral administration against liver cancer H22 (Example 33). Format: in vivo, Kunming mice. Conditions: oral gavage, 100 mg/kg/d, sacrificed after 13 days. Here is the method: (1) the negative control: PBS; (2) Xeloda group: 100 mg/kg/d; (3) TFU group: 70 mg/kg/d; (4) BC-01 group: 100 mg/kg/d.
[formula] [formula] [formula] 2.2: Inhibition Assay of Intravenous Administration Against Liver Cancer H22

For series [2], the system named is human ovarian cancer cell line 3-AO. In words: MTT proliferation inhibition, 3-AO. It counts as cell-based. Conditions: 48 h. The procedure:
as §1

Series [3] concerns human leukemia cell line K562. In words: MTT proliferation inhibition, K562. Format: cell-based. Conditions: 48 h. The procedure: as §1

This note sets out measurements from patent publication US9861703B2 (Jinan Platinum Pharmatech Co. Ltd., priority 2013, dated 2018).

In the case of `CC(C)C[C@H](NC(=O)[C@@H](O)[C@H](N)Cc1ccccc1)C(=O)OCn1cc(F)c(=O)[nH]c1=O.Cl` [BC-01, (S)-(5-fluoro-2,4-dioxo-3,4-dihydropyrimidinyl-1(2H))methyl-2-((2S,3R)-3-(amino)-2-hydroxy-4-phenylbutyryl)-4-methylpentanoate hydrochloride], the “proliferation inhibition activity against Hela compared with ubenimex and 5-FU” value with cell line Hela is given as “much higher proliferation inhibition activity”. For the same compound, the EC50 in the series on cell line Hela (48 h) worked out at 0.73 µM; in series [1], 1.35 µM; in series [2], 2.59 µM; in series [3], 5.82 µM. The “inhibitory activity against aminopeptidase N compared with positive control ubenimex” value at Aminopeptidase N was “comparable activity with ubenimex”. Besides, the IC50 at Aminopeptidase N amounted to 6.98 µM. For the same compound, the Tumor weight in the series on liver cancer H22 (two cycles (5 days on, 2 off)) worked out at 0.26 g. For the same compound, the “inhibitory ratio (%)” value with liver cancer H22 (two cycles) was 66.67%.
Take `CC(C)C[C@H](NC(=O)[C@@H](O)[C@H](N)Cc1ccccc1)C(=O)NCC(=O)OCn1cc(F)c(=O)[nH]c1=O.Cl` [BC-02, (5-fluoro-2,4-dioxo-3,4-dihydropyrimidinyl-1(2H))methyl-2-((S)-2-((2S,3R)-3-amino-2-hydroxy-4-phenylbutanamido)-4-methylpentanamido)acetate hydrochloride]: at Aminopeptidase N, the “inhibitory activity against aminopeptidase N compared with positive control ubenimex” value was “much more potent than the positive control drug ubenimex” and the IC50 is 0.38 µM.
